The source made the active and inactive calls. The calls are words filed in the database; no cut-off is given here.
Experiments:
[1] = biological target: Tyrosine-protein kinase SYK (Homo sapiens, UniProt P43405); assay: Human SKY enzyme assay
[2] = test system: Tyrosine-protein kinase ABL1 (Homo sapiens), P00519 [F317I]; conditions: Compound concentration 100.0 nM
[3] = test system: Tyrosine-protein kinase ABL1 (Homo sapiens), P00519 [T315I]; conditions: Compound concentration 100.0 nM
[4] = biological target: Tyrosine-protein kinase ABL1 (Homo sapiens) (UniProt P00519); conditions: Compound concentration 100.0 nM
[5] = biological target: Atypical kinase COQ8B, mitochondrial (Homo sapiens) (UniProt Q96D53); conditions: Compound concentration 100.0 nM
[6] = biological target: Mitogen-activated protein kinase kinase kinase 6 (Homo sapiens) (UniProt O95382); conditions: Compound concentration 100.0 nM
[7] = biological target: Serine/threonine-protein kinase B-raf (Homo sapiens) (UniProt P15056); conditions: Compound concentration 100.0 nM
[8] = biological target: Calcium/calmodulin-dependent protein kinase type II subunit alpha (Homo sapiens) (UniProt Q9UQM7); conditions: Compound concentration 100.0 nM
[9] = biological target: Cyclin-dependent kinase 4 (Homo sapiens) (UniProt P11802); conditions: Compound concentration 100.0 nM
[10] = biological target: Cyclin-dependent kinase 5 (Homo sapiens) (UniProt Q00535); conditions: Compound concentration 100.0 nM
[11] = biological target: Cyclin-dependent kinase-like 2 (Homo sapiens) (UniProt Q92772); conditions: Compound concentration 100.0 nM
[12] = biological target: Dual specificity protein kinase CLK2 (Homo sapiens) (UniProt P49760); conditions: Compound concentration 100.0 nM
[13] = biological target: Tyrosine-protein kinase CSK (Homo sapiens) (UniProt P41240); conditions: Compound concentration 100.0 nM
[14] = biological target: Serine/threonine-protein kinase DCLK1 (Homo sapiens) (UniProt O15075); conditions: Compound concentration 100.0 nM
[15] = biological target: Serine/threonine-protein kinase DCLK3 (Homo sapiens) (UniProt Q9C098); conditions: Compound concentration 100.0 nM
[16] = test system: Epidermal growth factor receptor (Homo sapiens), P00533 [T790M]; conditions: Compound concentration 100.0 nM
[17] = biological target: Ephrin type-A receptor 7 (Homo sapiens) (UniProt Q15375); conditions: Compound concentration 100.0 nM
[18] = biological target: Fibroblast growth factor receptor 1 (Homo sapiens) (UniProt P11362); conditions: Compound concentration 100.0 nM
[19] = biological target: Fibroblast growth factor receptor 3 (Homo sapiens) (UniProt P22607); conditions: Compound concentration 100.0 nM
[20] = biological target: Glycogen synthase kinase-3 beta (Homo sapiens) (UniProt P49841); conditions: Compound concentration 100.0 nM
[21] = biological target: Homeodomain-interacting protein kinase 2 (Homo sapiens) (UniProt Q9H2X6); conditions: Compound concentration 100.0 nM
[22] = biological target: Hormonally up-regulated neu tumor-associated kinase (Homo sapiens) (UniProt P57058); conditions: Compound concentration 100.0 nM
[23] = biological target: Inhibitor of nuclear factor kappa-B kinase subunit alpha (Homo sapiens) (UniProt O15111); conditions: Compound concentration 100.0 nM
[24] = biological target: Mitogen-activated protein kinase kinase kinase 3 (Homo sapiens) (UniProt Q99759); conditions: Compound concentration 100.0 nM
[25] = biological target: Serine/threonine-protein kinase MARK1 (Homo sapiens) (UniProt Q9P0L2); conditions: Compound concentration 100.0 nM
[26] = biological target: Mitogen-activated protein kinase kinase kinase 9 (Homo sapiens) (UniProt P80192); conditions: Compound concentration 100.0 nM
[27] = biological target: Mitogen-activated protein kinase kinase kinase 10 (Homo sapiens) (UniProt Q02779); conditions: Compound concentration 100.0 nM
[28] = biological target: Serine/threonine-protein kinase mTOR (Homo sapiens) (UniProt P42345); conditions: Compound concentration 100.0 nM
[29] = biological target: Serine/threonine-protein kinase Nek2 (Homo sapiens) (UniProt P51955); conditions: Compound concentration 100.0 nM
[30] = biological target: Cyclin-dependent kinase 2 homolog (Plasmodium falciparum (isolate 3D7)) (UniProt P61075); conditions: Compound concentration 100.0 nM
[31] = biological target: Protein kinase C delta type (Homo sapiens) (UniProt Q05655); conditions: Compound concentration 100.0 nM
[32] = biological target: Serine/threonine-protein kinase D1 (Homo sapiens) (UniProt Q15139); conditions: Compound concentration 100.0 nM
[33] = biological target: RAF proto-oncogene serine/threonine-protein kinase (Homo sapiens) (UniProt P04049); conditions: Compound concentration 100.0 nM
[34] = biological target: Ribosomal protein S6 kinase alpha-6 (Homo sapiens) (UniProt Q9UK32); conditions: Compound concentration 100.0 nM
[35] = biological target: Proto-oncogene tyrosine-protein kinase Src (Homo sapiens, UniProt P12931); conditions: Compound concentration 100.0 nM
[36] = biological target: Serine/threonine-protein kinase 16 (Homo sapiens) (UniProt O75716); conditions: Compound concentration 100.0 nM
[37] = biological target: Serine/threonine-protein kinase 35 (Homo sapiens) (UniProt Q8TDR2); conditions: Compound concentration 100.0 nM
[38] = biological target: Mitogen-activated protein kinase kinase kinase 7 (Homo sapiens) (UniProt O43318); conditions: Compound concentration 100.0 nM
[39] = biological target: Serine/threonine-protein kinase TAO1 (Homo sapiens) (UniProt Q7L7X3); conditions: Compound concentration 100.0 nM
[40] = biological target: Non-receptor tyrosine-protein kinase TYK2 (Homo sapiens) (UniProt P29597); conditions: Compound concentration 100.0 nM
[41] = biological target: Serine/threonine-protein kinase WNK4 (Homo sapiens) (UniProt Q96J92); conditions: Compound concentration 100.0 nM
[42] = biological target: Serine/threonine-protein kinase 25 (Homo sapiens) (UniProt O00506); conditions: Compound concentration 100.0 nM
[43] = biological target: 5-hydroxytryptamine receptor 3A (Homo sapiens) (UniProt P46098); conditions: Compound concentration 10.0 uM
[44] = biological target: Histamine H2 receptor (Homo sapiens) (UniProt P25021); conditions: Compound concentration 10.0 uM
[45] = biological target: Histamine H3 receptor (Homo sapiens) (UniProt Q9Y5N1); conditions: Compound concentration 10.0 uM
[46] = biological target: Muscarinic acetylcholine receptor M4 (Homo sapiens) (UniProt P08173); conditions: Compound concentration 10.0 uM

Proto-oncogene tyrosine-protein kinase Src, sequence (P12931 2-536 limits assumed): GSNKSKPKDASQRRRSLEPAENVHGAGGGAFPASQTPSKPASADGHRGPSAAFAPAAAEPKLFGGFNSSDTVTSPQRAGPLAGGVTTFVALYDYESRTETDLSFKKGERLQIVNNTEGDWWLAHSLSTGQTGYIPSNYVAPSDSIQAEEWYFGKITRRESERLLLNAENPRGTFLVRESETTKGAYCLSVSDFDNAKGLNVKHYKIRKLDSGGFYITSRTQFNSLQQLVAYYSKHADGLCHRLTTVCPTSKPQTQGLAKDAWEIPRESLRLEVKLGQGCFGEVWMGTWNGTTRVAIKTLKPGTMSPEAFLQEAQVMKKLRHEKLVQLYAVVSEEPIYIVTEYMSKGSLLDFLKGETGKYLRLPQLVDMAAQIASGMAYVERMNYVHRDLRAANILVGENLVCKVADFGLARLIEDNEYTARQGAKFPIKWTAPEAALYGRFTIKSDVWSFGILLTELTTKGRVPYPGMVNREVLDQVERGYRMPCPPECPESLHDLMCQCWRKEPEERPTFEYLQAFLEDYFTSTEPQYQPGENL
Serine/threonine-protein kinase DCLK1 (Homo sapiens), sequence (O15075 whole entry): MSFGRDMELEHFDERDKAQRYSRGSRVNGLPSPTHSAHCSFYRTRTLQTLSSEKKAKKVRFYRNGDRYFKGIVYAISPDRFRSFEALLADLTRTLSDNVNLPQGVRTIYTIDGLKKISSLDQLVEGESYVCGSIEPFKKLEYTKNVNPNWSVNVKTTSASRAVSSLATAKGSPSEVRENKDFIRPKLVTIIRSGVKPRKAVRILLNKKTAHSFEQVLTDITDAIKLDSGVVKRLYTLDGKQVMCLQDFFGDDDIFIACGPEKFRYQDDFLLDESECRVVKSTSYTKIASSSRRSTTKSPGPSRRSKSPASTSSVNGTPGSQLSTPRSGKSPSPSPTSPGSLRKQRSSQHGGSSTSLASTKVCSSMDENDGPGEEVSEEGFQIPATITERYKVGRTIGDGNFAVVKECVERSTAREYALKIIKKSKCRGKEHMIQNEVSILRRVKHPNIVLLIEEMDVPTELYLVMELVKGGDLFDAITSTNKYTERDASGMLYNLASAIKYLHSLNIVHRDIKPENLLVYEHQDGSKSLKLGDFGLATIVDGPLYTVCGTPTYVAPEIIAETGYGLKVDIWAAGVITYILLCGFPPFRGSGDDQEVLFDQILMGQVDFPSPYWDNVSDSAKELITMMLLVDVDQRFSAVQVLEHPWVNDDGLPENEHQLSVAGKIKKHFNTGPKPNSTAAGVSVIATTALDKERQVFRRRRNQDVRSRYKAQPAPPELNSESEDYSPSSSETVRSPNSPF
Serine/threonine-protein kinase TAO1 (Homo sapiens), sequence (Q7L7X3 whole entry): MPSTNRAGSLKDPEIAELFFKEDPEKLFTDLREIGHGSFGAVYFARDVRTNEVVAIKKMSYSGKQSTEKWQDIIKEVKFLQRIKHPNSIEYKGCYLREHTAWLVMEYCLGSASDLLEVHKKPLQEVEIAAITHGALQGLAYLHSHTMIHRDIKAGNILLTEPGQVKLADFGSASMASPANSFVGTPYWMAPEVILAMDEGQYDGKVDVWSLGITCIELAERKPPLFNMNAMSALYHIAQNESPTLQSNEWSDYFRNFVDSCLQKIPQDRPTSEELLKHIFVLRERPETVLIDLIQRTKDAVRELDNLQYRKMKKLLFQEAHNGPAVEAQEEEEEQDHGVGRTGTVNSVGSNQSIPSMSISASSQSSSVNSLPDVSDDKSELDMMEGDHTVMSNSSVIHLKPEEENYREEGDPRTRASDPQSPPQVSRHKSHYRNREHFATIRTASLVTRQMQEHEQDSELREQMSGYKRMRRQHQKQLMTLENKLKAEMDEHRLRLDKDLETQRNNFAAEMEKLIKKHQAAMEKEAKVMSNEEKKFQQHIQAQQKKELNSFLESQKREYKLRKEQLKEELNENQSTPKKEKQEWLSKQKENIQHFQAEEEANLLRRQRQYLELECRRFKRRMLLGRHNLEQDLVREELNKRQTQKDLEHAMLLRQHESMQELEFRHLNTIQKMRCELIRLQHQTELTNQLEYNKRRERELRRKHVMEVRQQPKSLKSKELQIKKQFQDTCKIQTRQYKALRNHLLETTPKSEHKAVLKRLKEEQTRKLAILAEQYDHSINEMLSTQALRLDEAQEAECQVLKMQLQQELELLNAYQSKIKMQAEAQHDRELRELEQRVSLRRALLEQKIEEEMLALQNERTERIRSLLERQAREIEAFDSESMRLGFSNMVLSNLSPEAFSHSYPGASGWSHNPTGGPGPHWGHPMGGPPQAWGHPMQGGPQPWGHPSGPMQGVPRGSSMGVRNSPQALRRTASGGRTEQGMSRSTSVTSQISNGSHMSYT
5-hydroxytryptamine receptor 3A (Homo sapiens), sequence (P46098 whole entry): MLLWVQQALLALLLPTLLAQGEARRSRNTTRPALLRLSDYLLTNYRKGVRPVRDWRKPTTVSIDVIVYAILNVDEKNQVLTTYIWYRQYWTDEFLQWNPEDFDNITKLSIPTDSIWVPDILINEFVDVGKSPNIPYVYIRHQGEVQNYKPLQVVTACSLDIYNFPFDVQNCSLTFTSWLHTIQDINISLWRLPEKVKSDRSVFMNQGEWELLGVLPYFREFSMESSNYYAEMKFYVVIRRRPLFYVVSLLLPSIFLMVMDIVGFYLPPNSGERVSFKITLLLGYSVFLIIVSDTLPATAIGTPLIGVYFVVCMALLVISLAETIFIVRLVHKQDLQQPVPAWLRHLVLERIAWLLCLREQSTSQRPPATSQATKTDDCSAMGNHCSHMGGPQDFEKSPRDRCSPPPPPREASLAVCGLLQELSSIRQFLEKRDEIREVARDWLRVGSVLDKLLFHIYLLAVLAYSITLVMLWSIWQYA
Serine/threonine-protein kinase MARK1 (Homo sapiens), sequence (Q9P0L2 whole entry, looked up): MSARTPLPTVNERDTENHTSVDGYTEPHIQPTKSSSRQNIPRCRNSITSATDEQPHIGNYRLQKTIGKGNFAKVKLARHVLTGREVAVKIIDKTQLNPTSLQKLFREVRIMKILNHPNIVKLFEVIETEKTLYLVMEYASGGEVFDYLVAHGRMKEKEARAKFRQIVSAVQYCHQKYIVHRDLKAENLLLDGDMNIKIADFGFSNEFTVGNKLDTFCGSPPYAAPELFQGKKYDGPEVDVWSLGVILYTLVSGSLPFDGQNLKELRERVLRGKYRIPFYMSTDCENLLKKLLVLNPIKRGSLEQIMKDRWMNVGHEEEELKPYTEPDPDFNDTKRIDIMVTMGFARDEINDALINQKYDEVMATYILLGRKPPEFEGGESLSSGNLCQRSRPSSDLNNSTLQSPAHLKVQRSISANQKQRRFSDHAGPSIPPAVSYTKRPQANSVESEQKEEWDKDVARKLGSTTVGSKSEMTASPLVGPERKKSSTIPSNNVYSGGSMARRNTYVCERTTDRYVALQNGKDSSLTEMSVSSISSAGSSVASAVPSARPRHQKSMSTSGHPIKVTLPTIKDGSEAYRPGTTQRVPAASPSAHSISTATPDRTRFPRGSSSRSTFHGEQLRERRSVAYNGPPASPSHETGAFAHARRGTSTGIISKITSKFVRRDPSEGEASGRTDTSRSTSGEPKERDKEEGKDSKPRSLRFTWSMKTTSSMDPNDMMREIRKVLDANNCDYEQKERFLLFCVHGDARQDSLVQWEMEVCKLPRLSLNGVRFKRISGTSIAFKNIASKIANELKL
Fibroblast growth factor receptor 3 (Homo sapiens), sequence (P22607 23-806 limits assumed): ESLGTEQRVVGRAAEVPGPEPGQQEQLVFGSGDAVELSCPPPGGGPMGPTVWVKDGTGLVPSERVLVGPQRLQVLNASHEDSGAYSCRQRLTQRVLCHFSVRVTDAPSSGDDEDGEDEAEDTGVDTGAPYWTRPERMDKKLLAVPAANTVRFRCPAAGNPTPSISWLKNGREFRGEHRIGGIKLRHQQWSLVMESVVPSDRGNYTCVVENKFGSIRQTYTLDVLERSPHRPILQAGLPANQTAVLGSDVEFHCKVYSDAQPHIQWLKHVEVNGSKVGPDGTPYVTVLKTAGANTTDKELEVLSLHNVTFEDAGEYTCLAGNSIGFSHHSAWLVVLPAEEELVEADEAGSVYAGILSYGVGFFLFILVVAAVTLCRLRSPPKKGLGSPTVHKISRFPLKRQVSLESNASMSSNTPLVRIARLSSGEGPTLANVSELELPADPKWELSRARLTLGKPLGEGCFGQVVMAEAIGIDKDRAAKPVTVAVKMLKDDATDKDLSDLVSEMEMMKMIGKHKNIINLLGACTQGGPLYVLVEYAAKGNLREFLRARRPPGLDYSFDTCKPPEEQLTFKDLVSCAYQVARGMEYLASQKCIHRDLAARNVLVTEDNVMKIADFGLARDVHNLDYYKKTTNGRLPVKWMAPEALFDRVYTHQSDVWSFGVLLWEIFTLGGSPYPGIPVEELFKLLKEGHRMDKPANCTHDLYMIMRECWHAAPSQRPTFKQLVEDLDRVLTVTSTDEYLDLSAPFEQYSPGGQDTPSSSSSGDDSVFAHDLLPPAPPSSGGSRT
Glycogen synthase kinase-3 beta (Homo sapiens), sequence (P49841 whole entry, looked up): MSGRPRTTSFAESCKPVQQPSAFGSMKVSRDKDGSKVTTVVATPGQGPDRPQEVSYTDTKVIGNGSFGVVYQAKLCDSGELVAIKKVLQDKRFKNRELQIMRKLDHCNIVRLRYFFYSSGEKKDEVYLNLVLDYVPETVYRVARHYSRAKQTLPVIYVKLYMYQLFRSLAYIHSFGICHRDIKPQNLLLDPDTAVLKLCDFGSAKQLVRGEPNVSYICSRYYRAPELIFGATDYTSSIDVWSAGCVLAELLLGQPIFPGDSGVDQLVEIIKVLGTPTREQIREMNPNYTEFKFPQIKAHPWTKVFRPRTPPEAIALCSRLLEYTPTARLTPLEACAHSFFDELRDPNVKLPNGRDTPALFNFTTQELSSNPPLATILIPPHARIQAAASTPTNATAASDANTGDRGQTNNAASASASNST
Cyclin-dependent kinase 2 homolog (Plasmodium falciparum (isolate 3D7)), sequence (P61075 whole entry): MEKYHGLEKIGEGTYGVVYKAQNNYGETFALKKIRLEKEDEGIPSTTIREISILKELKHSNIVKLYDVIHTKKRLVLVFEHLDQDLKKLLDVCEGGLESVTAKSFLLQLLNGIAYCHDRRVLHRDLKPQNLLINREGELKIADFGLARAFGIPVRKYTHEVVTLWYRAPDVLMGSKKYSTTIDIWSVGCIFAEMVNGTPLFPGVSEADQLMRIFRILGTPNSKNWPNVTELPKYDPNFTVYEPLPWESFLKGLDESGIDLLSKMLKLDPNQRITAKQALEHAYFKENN

SMILES: Cc1ccc(-c2cnc([C@@]3(O)CC[C@H](C(=O)O)C(C)(C)C3)s2)cc1Nc1cccc(C(F)(F)F)n1 [MRL-SYKi-NC]
- IC50 [1]: 4700 nM (not active)
- residual activity [2]: 80.1%
- residual activity [3]: 100%
- residual activity [4]: 100%
- residual activity [5]: 98.7%
- residual activity [6]: 100%
- residual activity [7]: 100%
- residual activity [8]: 90.8%
- residual activity [9]: 93.4%
- residual activity [10]: 100%
- residual activity [11]: 94.3%
- residual activity [12]: 100%
- residual activity [13]: 82.3%
- residual activity [14]: 91.3%
- residual activity [15]: 76.2%
- residual activity [16]: 77.8%
- residual activity [17]: 94.2%
- residual activity [18]: 92.4%
- residual activity [19]: 100%
- residual activity [20]: 95.6%
- residual activity [21]: 73.5%
- residual activity [22]: 96.2%
- residual activity [23]: 69.7%
- residual activity [24]: 82.5%
- residual activity [25]: 62.8%
- residual activity [26]: 100%
- residual activity [27]: 69.4%
- residual activity [28]: 84.6%
- residual activity [29]: 100%
- residual activity [30]: 33%
- residual activity [31]: 89%
- residual activity [32]: 90.1%
- residual activity [33]: 100%
- residual activity [34]: 90.8%
- residual activity [35]: 100%
- residual activity [36]: 78%
- residual activity [37]: 97.3%
- residual activity [38]: 92.6%
- residual activity [39]: 89.5%
- residual activity [40]: 100%
- residual activity [41]: 31.8%
- residual activity [42]: 72.5%
- inhibition [43]: -1.96%
- inhibition [44]: 8.65%
- inhibition [45]: 46.4%
- inhibition [46]: 20%

SMILES: Cc1cc(Nc2nccc(C)n2)cc(-c2cnc([C@@]3(O)CC[C@H](C(=O)O)C(C)(C)C3)s2)c1 [MRL-SYKi]
- IC50 [1]: 0.9 nM (active)
- residual activity [2]: 100%
- residual activity [3]: 100%
- residual activity [4]: 63.3%
- residual activity [5]: 99.4%
- residual activity [6]: 69.5%
- residual activity [7]: 100%
- residual activity [8]: 100%
- residual activity [9]: 100%
- residual activity [10]: 87.6%
- residual activity [11]: 89.6%
- residual activity [12]: 98%
- residual activity [13]: 100%
- residual activity [14]: 64.1%
- residual activity [15]: 97.3%
- residual activity [16]: 91.6%
- residual activity [17]: 81.3%
- residual activity [18]: 82%
- residual activity [19]: 88.2%
- residual activity [20]: 100%
- residual activity [21]: 83.5%
- residual activity [22]: 100%
- residual activity [23]: 100%
- residual activity [24]: 100%
- residual activity [25]: 95.3%
- residual activity [26]: 90.4%
- residual activity [27]: 95.1%
- residual activity [28]: 77.7%
- residual activity [29]: 100%
- residual activity [30]: 100%
- residual activity [31]: 83.7%
- residual activity [32]: 100%
- residual activity [33]: 100%
- residual activity [34]: 100%
- residual activity [35]: 53.7%
- residual activity [36]: 100%
- residual activity [37]: 100%
- residual activity [38]: 100%
- residual activity [39]: 100%
- residual activity [40]: 100%
- residual activity [41]: 100%
- residual activity [42]: 100%
- inhibition [43]: -3.85%
- inhibition [44]: 3.06%
- inhibition [45]: 50.4%
- inhibition [46]: 16.7%
